From patent publication US20240124444A1 (Celgene Corporation, priority 2020, published 2024) come the findings set out here.

The test system of the assay is C. parvum strain UGA1. Kind of assay: C. parvum growth inhibition assay (Nluc luminescence in HCT-8 cells). It counts as cell-based, Cryptosporidium parvum. The note with it: for EC50: C. parvum growth inhibition in HCT-8 cells, 48 hours, 6 concentrations 10-0.04 μM; for inhibition at 1 µM / inhibition at 10 µM: HCT-8; for inhibition at 1 µM: read-out: % inh @ 1 uM C. parvum; for inhibition at 10 µM: read-out: % inh @ 10 uM C. parvum.

[1] abbreviates: Cryptosporidium parvum, HCT-8, 48 h.
Setting [2] is: Cryptosporidium parvum, single point inhibition @ 1 uM.
The mark [3] stands for this setting: Cryptosporidium parvum, single point inhibition @ 10 uM.
Setting [4] is: Cryptosporidium parvum, single point inhibition at 1 uM.
[5] abbreviates: Cryptosporidium parvum, single point inhibition at 10 uM.

Read-outs that look alike come from different tables or passages of the source.

In the case of `Cc1cc(-c2cc3cnc(NC(=O)C4CC4)cc3n2CCO)ccn1` [Example 93, N-(1-(2-hydroxyethyl)-2-(2-methylpyridin-4-yl)-1H-pyrrolo[3,2-c]pyridin-6-yl)cyclopropanecarboxamide], the EC50 under setting [1] is over 1 µM. In addition, the inhibition at 1 µM under setting [2] fell in the range of 0 to 33%. Besides, the inhibition at 10 µM under setting [3] lay within 0 to 33%.

With `O=C(Nc1cc2[nH]c(-c3ccnc(OCC(F)F)n3)cc2cn1)c1cnn([C@H]2CC[C@@H](O)CC2)c1` [Example 323, N-(2-(2-(2,2-difluoroethoxy)pyrimidin-4-yl)-1H-pyrrolo[3,2-c]pyridin-6-yl)-1-((1s,4s)-4-hydroxycyclohexyl)-1H-pyrazole-4-carboxamide], the inhibition at 1 µM under setting [4] was 0 to 33%. Further, the inhibition at 10 µM under setting [5] was in the range of 0 to 33%.

As to `Cc1nccc(-c2cc3cnc(NC(=O)c4cnn(C)c4)cc3[nH]2)n1` [Example 185, 1-methyl-N-(2-(2-methylpyrimidin-4-yl)-1H-pyrrolo[3,2-c]pyridin-6-yl)-1H-pyrazole-4-carboxamide], under setting [2], the inhibition at 1 µM lay within 0 to 33%. In addition, under setting [3], the inhibition at 10 µM lay in the range of 67 to 100%.

Turning to `Cc1cc(-c2cc3cnc(NC(=O)N(C)C)cc3[nH]2)ccn1` [Example 291, 1,1-dimethyl-3-(2-(2-methylpyridin-4-yl)-1H-pyrrolo[3,2-c]pyridin-6-yl)urea], the inhibition at 1 µM under setting [4] was 0 to 33%. Also, the inhibition at 10 µM under setting [5] fell in the range of 0 to 33%.

For the compound `Cn1c(-c2ccccc2)cc2cnc(NC(=O)C3CCOCC3)cc21` [Example 265, N-(1-methyl-2-phenyl-1H-pyrrolo[3,2-c]pyridin-6-yl)tetrahydro-2H-pyran-4-carboxamide], under setting [4], the inhibition at 1 µM fell in the range of 0 to 33%. Also, the inhibition at 10 µM under setting [5] lay within 0 to 33%.

For the compound `Cn1cc(C(=O)Nc2cc3c(cn2)cc(-c2ccnc(NCCC(F)(F)F)n2)n3C)cn1` [Example 133, 1-methyl-N-(1-methyl-2-(2-(3,3,3-trifluoropropylamino)pyrimidin-4-yl)-1H-pyrrolo[3,2-c]pyridin-6-yl)-1H-pyrazole-4-carboxamide], the inhibition at 1 µM under setting [2] was 0 to 33%. Also, under setting [3], the inhibition at 10 µM was 67 to 100%.

With `FC(F)(F)CNc1cc(-c2cc3cnc(NC4CCOCC4)cc3[nH]2)ccn1` [Example 363, N-(tetrahydro-2H-pyran-4-yl)-2-(2-(2,2,2-trifluoroethylamino)pyridin-4-yl)-1H-pyrrolo[3,2-c]pyridin-6-amine], the EC50 under setting [1] was under 0.5 µM.

As for `CCOc1nccc(-c2cc3cnc(NC(=O)c4cnn(C)c4)cc3[nH]2)n1` [Example 293, N-(2-(2-ethoxypyrimidin-4-yl)-1H-pyrrolo[3,2-c]pyridin-6-yl)-1-methyl-1H-pyrazole-4-carboxamide], under setting [4], the inhibition at 1 µM lay within 0 to 33%. The inhibition at 10 µM under setting [5] was in the range of 0 to 33%.

Under setting [1], `c1nc(NC2CCOCC2)cc2[nH]c(C3CCCCC3)cc12` [Example 26, 2-Cyclohexyl-N-(tetrahydro-2H-pyran-4-yl)-1H-pyrrolo[3,2-c]pyridin-6-amine] displayed an EC50 of over 1 µM.

As to `Cc1cc(-c2cc3cnc(NC(=O)CN(C)C)cc3n2C)ncn1` [Example 127, 2-(dimethylamino)-N-(1-methyl-2-(6-methylpyrimidin-4-yl)-1H-pyrrolo[3,2-c]pyridin-6-yl)acetamide], under setting [1], the EC50 was over 1 µM.

Consider `Cc1cc(-c2cc3cnc(NC(=O)C4CC4)cc3n2C(C)C)ccn1` [Example 329, N-(1-isopropyl-2-(2-methylpyridin-4-yl)-1H-pyrrolo[3,2-c]pyridin-6-yl)cyclopropanecarboxamide], for which the inhibition at 1 µM under setting [4] lay in the range of 0 to 33%. For the same compound, under setting [5], the inhibition at 10 µM was in the range of 0 to 33%.

For the compound `Cn1ncc2ccc(Nc3cc4[nH]c(-c5ccncc5)cc4cn3)cc21` [Example 195, 1-methyl-N-(2-(pyridin-4-yl)-1H-pyrrolo[3,2-c]pyridin-6-yl)-1H-indazol-6-amine], the inhibition at 1 µM under setting [2] lay within 67 to 100%. Also, the inhibition at 10 µM under setting [3] fell in the range of 67 to 100%.

Under setting [1], `Cc1cc(-c2[nH]c3cc(NC4CCOCC4)ncc3c2C(F)(F)F)ccn1` [Example 375, 2-(2-methylpyridin-4-yl)-N-(tetrahydro-2H-pyran-4-yl)-3-(trifluoromethyl)-1H-pyrrolo[3,2-c]pyridin-6-amine] yielded an EC50 of over 1 µM.

`Cn1cc(-c2cc3cnc(Nc4ccc(F)cc4)cc3n2C)cn1` [Example 235, N-(4-fluorophenyl)-1-methyl-2-(1-methyl-1H-pyrazol-4-yl)-1H-pyrrolo[3,2-c]pyridin-6-amine]: the inhibition at 1 µM under setting [4] was in the range of 0 to 33%. Also, under setting [5], the inhibition at 10 µM was 33 to 66%.

On to `Cc1cc2cnc(NC(=O)c3cnn(C)c3)cc2[nH]1` [Example 285, 1-methyl-N-(2-methyl-1H-pyrrolo[3,2-c]pyridin-6-yl)-1H-pyrazole-4-carboxamide], for which the inhibition at 1 µM under setting [4] lay in the range of 0 to 33%. Also, the inhibition at 10 µM under setting [5] fell in the range of 0 to 33%.

`CC(C)(O)c1cc(-c2cc3cnc(Nc4cccc(-c5nc[nH]n5)c4)cc3[nH]2)ccn1` [Example 215, 2-(4-(6-(3-(1H-1,2,4-triazol-3-yl)phenylamino)-1H-pyrrolo[3,2-c]pyridin-2-yl)pyridin-2-yl)propan-2-ol]: under setting [4], the inhibition at 1 µM was 33 to 66%. Besides, the inhibition at 10 µM under setting [5] lay in the range of 67 to 100%.

Consider `Cn1c(-c2ccnc(C(F)(F)F)n2)cc2cnc(NC(=O)C3CC3)cc21` [Example 302, N-(1-methyl-2-(2-(trifluoromethyl)pyrimidin-4-yl)-1H-pyrrolo[3,2-c]pyridin-6-yl)cyclopropanecarboxamide], for which, under setting [4], the inhibition at 1 µM fell in the range of 0 to 33%. Also, the inhibition at 10 µM under setting [5] was 0 to 33%.

Take `FC1(F)CC(c2cc3cnc(NC4CCOCC4)cc3[nH]2)C1` [Example 397, 2-(3,3-difluorocyclobutyl)-N-(tetrahydro-2H-pyran-4-yl)-1H-pyrrolo[3,2-c]pyridin-6-amine]: under setting [4], the inhibition at 1 µM lay within 33 to 66%. The inhibition at 10 µM under setting [5] was in the range of 33 to 66%.

The compound `CCOc1nccc(-c2cc3cnc(NC(=O)C4C5CCCC54)cc3[nH]2)n1` (stereo not drawn) [Example 58, N-(2-(2-ethoxypyrimidin-4-yl)-1H-pyrrolo[3,2-c]pyridin-6-yl)bicyclo[3.1.0]hexane-6-carboxamide] returned an EC50 under setting [1] of over 1 µM. The inhibition at 1 µM under setting [2] fell in the range of 0 to 33%. For the same compound, the inhibition at 10 µM under setting [3] is 67 to 100%.

Consider `O=C(Nc1cc2[nH]c(-c3ccncc3)cc2cn1)C1CCCC1` [Example 137, N-(2-(pyridin-4-yl)-1H-pyrrolo[3,2-c]pyridin-6-yl)cyclopentanecarboxamide], for which, under setting [2], the inhibition at 1 µM lay within 0 to 33%. In addition, the inhibition at 10 µM under setting [3] is 67 to 100%.

As to `Cc1cc(-c2cc3cnc(NC(=O)c4c(C)noc4C)cc3[nH]2)ccn1` [Example 221, 3,5-dimethyl-N-(2-(2-methylpyridin-4-yl)-1H-pyrrolo[3,2-c]pyridin-6-yl)isoxazole-4-carboxamide], the inhibition at 1 µM under setting [4] fell in the range of 0 to 33%. The inhibition at 10 µM under setting [5] is 33 to 66%.

Turning to `COc1ccc(Nc2cc3c(cn2)cc(-c2cnn(C)c2)n3C)cc1` [Example 203, N-(4-methoxyphenyl)-1-methyl-2-(1-methyl-1H-pyrazol-4-yl)-1H-pyrrolo[3,2-c]pyridin-6-amine], the inhibition at 1 µM under setting [4] is 0 to 33%. Moreover, under setting [5], the inhibition at 10 µM lay in the range of 67 to 100%.

Regarding `Cc1nccc(-c2cc3cnc(NC(=O)C4CC4)cc3n2C)n1` [Example 100, N-(1-methyl-2-(2-methylpyrimidin-4-yl)-1H-pyrrolo[3,2-c]pyridin-6-yl)cyclopropanecarboxamide], under setting [1], the EC50 was over 1 µM.

Turning to `Cc1cc(-c2cc3cnc(NC(=O)c4cc(C(F)F)nn4C)cc3[nH]2)ccn1` [Example 218, 3-(difluoromethyl)-1-methyl-N-(2-(2-methylpyridin-4-yl)-1H-pyrrolo[3,2-c]pyridin-6-yl)-1H-pyrazole-5-carboxamide], the inhibition at 1 µM under setting [4] lay in the range of 0 to 33%. Also, the inhibition at 10 µM under setting [5] lay in the range of 33 to 66%.

Under setting [1], `O=C(Nc1cc2[nH]c(C(F)(F)F)cc2cn1)C1CCC1` [Example 76, N-(2-(trifluoromethyl)-1H-pyrrolo[3,2-c]pyridin-6-yl)cyclobutanecarboxamide] had a concentration for a half-maximal effect (EC50) of over 1 µM.

`Cc1cc(-c2cc3cnc(NC(=O)c4cnn(C5CCCC5)c4)cc3[nH]2)ccn1` [Example 84, 1-cyclopentyl-N-(2-(2-methylpyridin-4-yl)-1H-pyrrolo[3,2-c]pyridin-6-yl)-1H-pyrazole-4-carboxamide] registered a concentration for a half-maximal effect (EC50) under setting [1] of over 1 µM. Further, the inhibition at 1 µM under setting [2] was in the range of 67 to 100%. Moreover, the inhibition at 10 µM under setting [3] lay in the range of 0 to 33%.

In the case of `Cc1cc(-c2cc3cnc(NC4CCCOC4)cc3[nH]2)ccn1` (stereo in doubt) [Example 356, (R)-2-(2-methylpyridin-4-yl)-N-(tetrahydro-2H-pyran-3-yl)-1H-pyrrolo[3,2-c]pyridin-6-amine], the EC50 is under 0.5 µM.

Turning to `Cn1cc(-c2cc3cnc(Nc4ccc(C(F)(F)F)cc4)cc3[nH]2)cn1` [Example 222], under setting [5], the inhibition at 10 µM fell in the range of 33 to 66%.

For `COc1nccc(-c2cc3cnc(NC(=O)c4cnn(CC5CCOC5)c4)cc3[nH]2)n1` (stereo in doubt) [Example 184, (R)-N-(2-(2-methoxypyrimidin-4-yl)-1H-pyrrolo[3,2-c]pyridin-6-yl)-1-((tetrahydrofuran-3-yl)methyl)-1H-pyrazole-4-carboxamide], under setting [2], the inhibition at 1 µM lay within 0 to 33%. Also, the inhibition at 10 µM under setting [3] lay in the range of 67 to 100%.

For the compound `Cn1cc(C(=O)Nc2cc3[nH]c(-c4nc[nH]n4)cc3cn2)cn1` [Example 264, N-(2-(1H-1,2,4-triazol-3-yl)-1H-pyrrolo[3,2-c]pyridin-6-yl)-1-methyl-1H-pyrazole-4-carboxamide], the inhibition at 1 µM under setting [4] was in the range of 0 to 33%. Also, the inhibition at 10 µM under setting [5] lay within 0 to 33%.

With `CCOc1nccc(-c2cc3cnc(NC(=O)c4ccc(OCCOC)c(OC)c4)cc3[nH]2)n1` [Example 249, N-(2-(2-ethoxypyrimidin-4-yl)-1H-pyrrolo[3,2-c]pyridin-6-yl)-3-methoxy-4-(2-methoxyethoxy)benzamide], under setting [4], the inhibition at 1 µM is 0 to 33%. The inhibition at 10 µM under setting [5] is 0 to 33%.
